{"source": "ChEMBL document CHEMBL4043145", "about": "“Pyridine-pyrimidine amides that prevent HGF-induced epithelial scattering by two distinct mechanisms” (Bioorg Med Chem Lett, 2017)", "key": {"[1]": {"test_system": "A2780", "experiment": "Cell cycle arrest in human A2780 cells assessed as accumulation at S phase at 100 nM (reference value: 21.16 to 22.81%)", "assay_type": "functional"}, "[2]": {"test_system": "PC-3", "experiment": "Cell cycle arrest in human p53-null PC3 cells assessed as accumulation at G2/M phase at 100 nM (reference value: 18.37 to 18.96%)", "assay_type": "functional"}, "[3]": {"test_system": "A2780", "experiment": "Antiproliferative activity against human A2780 cells", "assay_type": "functional, cell-based"}, "[4]": {"test_system": "A2780", "experiment": "Cell cycle arrest in human A2780 cells assessed as accumulation at G1 phase at 300 nM (reference value: 55.26 to 55.66%)", "assay_type": "functional"}, "[5]": {"test_system": "PC-3", "experiment": "Cell cycle arrest in human p53-null PC3 cells assessed as accumulation at S phase at 300 nM (reference value: 29.08 to 29.33%)", "assay_type": "functional"}, "[6]": {"test_system": "MFE-296", "experiment": "Cell cycle arrest in human MFE296 cells assessed as accumulation at G1 phase at 1000 nM (reference value: 61.05 to 64.87%)", "assay_type": "functional"}, "[7]": {"test_system": "MFE-280", "experiment": "Cell cycle arrest in human MFE280 cells assessed as accumulation at G2/M phase at 300 nM (reference value: 16.43 to 17.9%)", "assay_type": "functional"}, "[8]": {"test_system": "MCF7", "experiment": "Cell cycle arrest in human MCF7 cells assessed as accumulation at G2/M phase at 1000 nM (reference value: 20.06 to 22.33%)", "assay_type": "functional"}, "[9]": {"experiment": "Inhibition of bovine brain tubulin polymerization", "design": "species or system Bos taurus"}, "[10]": {"test_system": "MFE-280", "experiment": "Cell cycle arrest in human MFE280 cells assessed as accumulation at S phase at 1000 nM (reference value: 14.14 to 15.66%)", "assay_type": "functional"}, "[11]": {"test_system": "A2780", "experiment": "Cell cycle arrest in human A2780 cells assessed as accumulation at S phase at 300 nM (reference value: 21.16 to 22.81%)", "assay_type": "functional"}, "[12]": {"test_system": "T47D", "experiment": "Cell cycle arrest in human T47D cells assessed as accumulation at G1 phase at 100 nM (reference value: 45.5 to 57.8%)", "assay_type": "functional"}, "[13]": {"test_system": "MFE-280", "experiment": "Induction of apoptosis in human MFE280 cells assessed as late apoptotic cells at 300 nM by 7-AAD/Annexin staining-based assay (reference value: 6 to 7.4%)", "assay_type": "functional"}, "[14]": {"test_system": "MFE-296", "experiment": "Cell cycle arrest in human MFE296 cells assessed as accumulation at G1 phase at 100 nM (reference value: 61.05 to 64.87%)", "assay_type": "functional"}, "[15]": {"test_system": "MFE-296", "experiment": "Cell cycle arrest in human MFE296 cells assessed as accumulation at S phase at 100 nM (reference value: 16.96 to 19.19%)", "assay_type": "functional"}, "[16]": {"test_system": "MFE-280", "experiment": "Cell cycle arrest in human MFE280 cells assessed as accumulation at G1 phase at 1000 nM (reference value: 64.99 to 67.86%)", "assay_type": "functional"}, "[17]": {"test_system": "A2780", "experiment": "Cell cycle arrest in human A2780 cells assessed as accumulation at G2/M phase at 300 nM (reference value: 19.42 to 20.43%)", "assay_type": "functional"}, "[18]": {"test_system": "MCF7", "experiment": "Cell cycle arrest in human MCF7 cells assessed as accumulation at G1 phase at 100 nM (reference value: 47.47 to 52.3%)", "assay_type": "functional"}, "[19]": {"test_system": "MFE-296", "experiment": "Cell cycle arrest in human MFE296 cells assessed as accumulation at S phase at 300 nM (reference value: 16.96 to 19.19%)", "assay_type": "functional"}}}
{"compound": "O=C(Nc1ccc(-c2cccc(Cl)c2)cn1)c1cncnc1", "values": [{"measurement": "Activity", "setting": "[1]", "value": 18.92, "unit": "%"}, {"measurement": "Activity", "setting": "[2]", "value": 25.26, "unit": "%"}, {"measurement": "EC50", "setting": "[3]", "value": 55, "unit": "nM"}, {"measurement": "Activity", "setting": "[4]", "value": 24.74, "unit": "%"}, {"measurement": "Activity", "setting": "[5]", "value": 22.85, "unit": "%"}, {"measurement": "Activity", "setting": "[6]", "value": 8.62, "unit": "%"}, {"measurement": "Activity", "setting": "[7]", "value": 37.86, "unit": "%"}, {"measurement": "Activity", "setting": "[8]", "value": 63.38, "unit": "%"}, {"measurement": "IC50", "setting": "[9]", "value": 1450, "unit": "nM"}, {"measurement": "Activity", "setting": "[10]", "value": 18.57, "unit": "%"}, {"measurement": "Activity", "setting": "[11]", "value": 22.35, "unit": "%"}, {"measurement": "Activity", "setting": "[12]", "value": 54.23, "unit": "%"}, {"measurement": "Activity", "setting": "[13]", "value": 9.5, "unit": "%"}, {"measurement": "Activity", "setting": "[14]", "value": 53.3, "unit": "%"}, {"measurement": "Activity", "setting": "[15]", "value": 21.05, "unit": "%"}, {"measurement": "Activity", "setting": "[16]", "value": 34.18, "unit": "%"}, {"measurement": "Activity", "setting": "[17]", "value": 30.36, "unit": "%"}, {"measurement": "Activity", "setting": "[18]", "value": 43.58, "unit": "%"}, {"measurement": "Activity", "setting": "[19]", "value": 20.61, "unit": "%"}]}
